# Target: T1, human renin (Homo sapiens, UniProt P00797)
# T1 construct: A human plasma pool is used as the source of both the substrate (angiotensinogen) and the enzyme (renin); from tissue; host or cells: human plasma pool
# T1 sequence (P00797 67-406): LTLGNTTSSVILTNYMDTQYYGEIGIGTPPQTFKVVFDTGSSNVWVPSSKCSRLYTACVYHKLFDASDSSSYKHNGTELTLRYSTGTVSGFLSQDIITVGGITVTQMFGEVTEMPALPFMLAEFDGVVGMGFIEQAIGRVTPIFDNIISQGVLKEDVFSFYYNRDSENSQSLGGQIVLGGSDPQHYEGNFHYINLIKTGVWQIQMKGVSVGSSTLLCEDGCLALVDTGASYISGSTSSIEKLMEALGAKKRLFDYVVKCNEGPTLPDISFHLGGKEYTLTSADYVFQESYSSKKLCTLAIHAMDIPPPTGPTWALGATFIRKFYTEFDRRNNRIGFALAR
# Test: Plasma renin assay (inhibition of human renin, angiotensin I by RIA)
# Assay type: biochemical
# Settings: human plasma pool, pH 6.0, 2 h incubation at 37°
# How it was run: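 Pooled human plasma supplies both renin and angiotensinogen; inhibitor in MES/1% HSA buffer (1% DMSO final) incubated 2 h at 37° at pH 6.0. Angiotensin I generated quantified by radioimmunoassay, inhibition relative to no-inhibitor control, IC50 by nonlinear regression.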
row,Structure (SMILES),IC50
1,"CC(C)C[C@H](O)[C@H](O)[C@H](CC1CCCCC1)NC(=O)[C@@H](CC(=O)N(CC(=O)N(C)C)[C@@H](C)C1CCCCC1)CC1CC1 [Compound 38, N^4-(1(S)-cyclohexylethyl)-N^4-[2-(dimethylamino)-2-oxoethyl]-N^1-[1(S)-(cyclohexylmethyl)-2(R),3(S)-dihydroxy-5-methylhexyl]-2(R)-(cyclopropylmethyl)butanediamide]",8.3 nM
2,"CC(C)C[C@H](O)[C@H](O)[C@H](CC1CCCCC1)NC(=O)[C@@H](CC(=O)N(CC(=O)N(C)CCc1ccccn1)[C@@H](C)c1ccccc1)Cc1csc(N)n1 [Compound 75, N^4 -{2-{methyl[2-(2-pyridinyl)ethyl]-amino}-2-oxoethyl}-N^4-[1(S)-phenylethyl]-N^1-[1(S)-(cyclohexylmethyl)-2(R),3(S)-dihydroxy-5-methylhexyl]-2(R)-[(2-amino-4-thiazolyl)methyl]butanediamide]",1 nM
3,"CC(C)OC(=O)[C@H](O)[C@H](CC1CCCCC1)NC(=O)[C@@H](CC(=O)N(CC(=O)N(C)C)[C@@H](C)c1ccccc1)Cc1csc(N)n1 [Compound 45, N^4-[2-(dimethylamino)-2-oxoethyl]-N^4-[1(S)-phenylethyl]-N^4-[1(S)-(cyclohexylmethyl)-2(R)-hydroxy-3-(1-methylethoxy)-3-oxopropyl]-2(R)-[(2-amino-4-thiazolyl)methyl]-butanediamide]",16 nM
4,"CC(C)C[C@H](O)[C@H](O)[C@H](CC1CCCCC1)NC(=O)[C@@H](CC(=O)N(CC(=O)N(C)C)Cc1cccc2ccccc12)CC1CC1 [Compound 9, N^4-[2-(dimethylamino)-2-oxoethyl]-N^4-(1-naphthylmethyl)-N^1-[1(S)-(cyclohexylmethyl)-2(R),3(S)-dihydroxy-5-methylhexyl]-2(R)-(cyclopropylmethyl)butanediamide]",66 nM
5,"CC(C)C[C@H](O)[C@H](O)[C@H](CC1CCCCC1)NC(=O)[C@@H](CC(=O)N(CC(=O)N(C)CCN(C)C(=O)N1CCOCC1)[C@@H](C)c1ccccc1)Cc1csc(N)n1 [Compound 15, N^4 -{2-{methyl{2-[methyl(morpholinocarbonyl)amino]ethyl}amino}-2-oxoethyl}-N^4-[1(S)-phenylethyl]-N^1-[1(S)-(cyclohexylmethyl)-2(R),3(S)-dihydroxy-5-methylhexyl]-2(R)-[(2-amino-4-thiazolyl)methyl]butanediamide]",0.5 nM
6,"CC(C)C[C@H](O)[C@H](O)[C@H](CC1CCCCC1)NC(=O)[C@@H](CC(=O)N(CC(=O)N(C)C)CC1CCCCC1)Cc1ccccc1 [Compound 55, N^4-(cyclohexylmethyl)-N^4-[2-(dimethylamino)-2-oxoethyl]-N^1-[1(S)-(cyclohexylmethyl)-2(R),3(S)-dihydroxy-5-methylhexyl]-2(R)-(phenylmethyl)butanediamide]",16 nM
7,"CC(C)C[C@H](O)[C@H](O)[C@H](CC1CCCCC1)NC(=O)[C@@H](CC(=O)N(CC(=O)N(C)C)[C@@H](C)c1ccccc1)Cc1csc(N)n1 [Compound 28, N^4-[2-(dimethylamino)-2-oxoethyl]-N^4-[1(S)-phenylethyl]-N^1-[1(S)-(cyclohexylmethyl)-2(R),3(S)-dihydroxy-5-methylhexyl]-2(R)-[(2-amino-4-thiazolyl)methyl]butanediamide]",1.3 nM
8,"CCN(CC)CCN(C)C(=O)CN(C(=O)C[C@@H](CC1CC1)C(=O)N[C@@H](CC1CCCCC1)[C@@H](O)[C@@H](O)CC(C)C)[C@@H](C)c1ccccc1 [Compound 24, N^4 -{2-{[2-(diethylamino)ethyl]methylamino}-2-oxoethyl}-N^4-[1(S)-phenylethyl]-N^1-[1(S)-(cyclohexylmethyl)-2(R),3(S)-dihydroxy-5-methylhexyl]-2(R)-(cyclopropylmethyl)-butanediamide]",61 nM

# Further lines, results first:
row,IC50,Structure (SMILES)
1,4 nM,"Cc1ccsc1CN(CC(=O)N(C)CCc1ccccn1)C(=O)C[C@@H](Cc1csc(N)n1)C(=O)N[C@@H](CC1CCCCC1)[C@@H](O)[C@@H](O)CC(C)C [Compound 88, N^4 -{2-{methyl[2-(2-pyridinyl)ethyl]-amino}-2-oxoethyl}-N^4-[(3-methyl-2-thienyl)methyl]-N^4-[1(S)-(cyclohexylmethyl)-2(R),3(S)-dihydroxy-5-methylhexyl]-2(R)-[(2-amino-4-thiazolyl)methyl]butanediamide]"
2,1 nM,"CC(C)C[C@H](O)[C@H](O)[C@H](CC1CCCCC1)NC(=O)[C@@H](CC(=O)N(CC(=O)N(C)CCc1ccccn1)Cc1ccccc1)Cc1csc(N)n1 [Compound 57, N^4-benzyl-N^4 -{2-{methyl[2-(2-pyridinyl)ethyl]amino}-2-oxoethyl}-N^1-[1(S)-(cyclohexylmethyl)-2(R),3(S)-dihydroxy-5-methylhexyl]-2(R)-[(2-amino-4-thiazolyl)methyl]-butanediamide]"
3,12 nM,"CC(C)C[C@H](O)[C@H](O)[C@H](CC1CCCCC1)NC(=O)[C@@H](CC(=O)N(CC(=O)N(C)CCc1ccccn1)CC1CCCCC1)CC1CC1 [Compound 46, N^4-(cyclohexylmethyl)-N^4 -{2-{methyl-[2-(2-pyridinyl)-ethyl]amino}-2-oxoethyl}-N^1-[1(S)-(cyclohexylmethyl)-2(R),3(S)-dihydroxy-5-methylhexyl]-2(R)-(cyclopropylmethyl)butanediamide]"
4,0.5 nM,"CC(C)C[C@H](O)[C@H](O)[C@H](CC1CCCCC1)NC(=O)[C@@H](CC(=O)N(CC(=O)N(C)CCN1CCOCC1)CC1CCCCC1)Cc1csc(N)n1 [Compound 90, N^4-(cyclohexylmethyl)-N^4 -{2-{methyl-(2-morpholinoethyl)amino]-2-oxoethyl}-N^1-[(S)-(cyclohexylmethyl)-2(R),3(S)-dihydroxy-5-methylhexyl]-2(R)-[(2-amino-4-thiazolyl)methyl]-butanediamide]"
5,3 nM,"CC(C)C[C@H](O)[C@H](O)[C@H](CC1CCCCC1)NC(=O)[C@@H](CC(=O)N(CC(=O)N(C)CCc1ccccn1)Cc1ccoc1)Cc1csc(N)n1 [Compound 89, N^4-(3-furanylmethyl)-N^4 -{2-{methyl-[2-(2-pyridinyl)ethyl]amino}-2-oxoethyl}-N^1-[1(S)-(cyclohexylmethyl)-2(R),3(S)-dihydroxy-5-methylhexyl]-2(R)-[(2-amino-4-thiazolyl)-methyl]butanediamide]"
6,2.2 nM,"CC(C)C[C@H](O)[C@H](O)[C@H](CC1CCCCC1)NC(=O)[C@@H](CC(=O)N(CC(=O)N(C)CCc1ccccn1)CC1CCCCC1)Cc1csc(N)n1 [Compound 50, N^4-(cyclohexylmethyl)-N^4 -{2-{methyl-[2-(2-pyridinyl)ethyl]-amino}-2-oxoethyl}-N^1-[1(S)-(cyclohexylmethyl)-2(R),3(S)-dihydroxy-5-methylhexyl]-2(R)-[(2-amino-4-thiazolyl)methyl]butanediamide]"
7,10 nM,"CC(C)C[C@H](O)[C@H](O)[C@H](CC1CCCCC1)NC(=O)[C@@H](CC(=O)N(CC(=O)N(C)C)Cc1ccccn1)Cc1csc(N)n1 [Compound 64, N^4-[2-(dimethylamino)-2-oxoethyl]-N^4-(2-pyridinylmethyl)-N^1-[1(S)-(cyclohexylmethyl)-2(R),3(S)-dihydroxy-5-methylhexyl]-2(R)-[(2-amino-4-thiazolyl)methyl]-butanediamide]"

# From patent publication US5541163A, “Renin inhibiting N-(2-amino-2-oxoethyl)butanediamide derivatives” (Bio-Mega/Boehringer Ingelheim Research Inc., priority 1993, dated 1996)
